For 101 compounds, Kd results are on record in PubChem BioAssay AID1549 (Sanford-Burnham Center for Chemical Genomics, 2009).

The Kd is a measure of binding affinity in units of concentration.

The source made the active and inactive calls. How the calls were made is not given here.

For the test, the target named is Influenza A virus M2 proton channel (A/TW/4845/1999 H1N1). The test can be described thus: M2 proton channel binding, NMR based, influenza A virus H1N1 strain (AID 1549). The note with it: NMR binding screen, M2 protein.
`Cc1cc(C)cc(C(=O)N2CCC(C(N)=O)CC2)c1`: the Kd was > 4 mM (inactive). The result for `CC1(C)Cc2c(c(-c3ccco3)[nH]c(=O)c2C#N)CO1` reads > 4 mM (inactive); that for `NC1=C([N+](=O)[O-])C(=O)c2ccccc21`, > 4 mM (inactive).

On to `CCC(=O)NC(=S)Nc1ccc(O)cc1`, for which the Kd was > 4 mM (inactive). `CN1CCn2c1nc(N1CCOCC1)nc2=O`: the Kd is > 4 mM (inactive).

For the compound `NC(=O)c1c(Cl)nsc1-c1ccccc1Cl`, the Kd was > 4 mM (inactive). For the compound `CC(=O)N1CCn2c3c(c(=O)c4cc(C)ccc42)CCC31` (stereo unspecified), the Kd is > 4 mM (inactive). In the case of `CCCCCCCCCCCCCCC(C(=O)OC)C(O)(CC(=O)OC)C(=O)OC` (stereo unspecified) it was > 4 mM (inactive); in that of `COC(=O)c1ccc(Cl)c(NC(C)=O)c1`, > 4 mM (inactive); in that of `Cc1occc(=O)c1O`, > 4 mM (inactive). The result for `OCCNC(=S)Nc1ccc(F)cc1` reads > 4 mM (inactive); that for `Clc1ccccc1OCCn1ccnc1`, > 4 mM (inactive); that for `Nc1csc(C(=O)O)c1`, > 4 mM (inactive). The result for `CC(=O)OCC(=O)[C@@]1(O)CCC2C3CC[C@@H]4C[C@H](O)CC[C@]4(C)C3C(=O)C[C@@]21C` (stereo partly specified) reads > 4 mM (inactive); that for `CP(C)(=O)c1cccc(C(=O)O)c1`, > 4 mM (inactive). Take `Cn1c(=O)n(-c2cccc(Cl)c2)c(=O)n1C`: the Kd was > 4 mM (inactive). Consider `CC12CCCC(O)(C1)C1CC(C)(C)C1CC2` (stereo unspecified), for which the Kd is > 4 mM (inactive). As for `Cc1cc(NC(=O)c2cc(C)on2)no1`, the Kd is > 4 mM (inactive). Regarding `NC(=O)c1ccsc1NC(=O)C1=COCCO1`, the Kd was > 4 mM (inactive). In the case of `COc1nc(C)ccc1-c1noc(-c2ccncc2)n1` it was > 4 mM (inactive); in that of `CN(Cc1nc2ccccc2n1C)S(C)(=O)=O`, > 4 mM (inactive); in that of `O=C1CC(C(=O)O)c2ccccc21` (stereo unspecified), > 4 mM (inactive). As for `S=c1oc(-c2ccncc2)nn1CCc1ccncc1`, the Kd was > 4 mM (inactive). Turning to `CNC(=O)C(=O)Nc1cccc(Cl)c1`, the Kd is > 4 mM (inactive). Consider `COc1ccc([C@@H](C)C(=O)c2ccc(O)cc2O)cc1`, for which the Kd was > 4 mM (inactive). `COC(=O)c1cnccc1C(F)(F)F`: the Kd is > 4 mM (inactive). Take `COc1cc(C(C)=O)ccc1OC(=O)N1CCOCC1`: the Kd was > 4 mM (inactive). The result for `CC(C)Nc1nc2n(c(=O)n1)CCN2C(C)C` reads > 4 mM (inactive); that for `Cc1cc(C)n(S(=O)(=O)c2ccc(C)c(C)c2C)n1`, > 4 mM (inactive).

As for `C/C=C(\C)c1nnc(NC(=O)c2ccco2)s1`, the Kd was > 4 mM (inactive). As for `Cn1ncc(C(=O)O)c1-c1ccccc1`, the Kd is > 4 mM (inactive). Consider `NCCc1ccc(S(N)(=O)=O)cc1`, for which the Kd was > 4 mM (inactive). The result for `C=CC(C1=CC(=O)C(OC)=CC1=O)c1ccc(O)cc1` (stereo unspecified) reads > 4 mM (inactive); that for `COc1c(C(=O)N2CCCC2)ccc2ccccc12`, > 4 mM (inactive). In the case of `OCc1ccccc1CN1CCOCC1` it was > 4 mM (inactive); in that of `CC(C)[C@@H]1CC[C@@H](C)CC1=O`, > 4 mM (inactive).

With `Cn1c(SCc2ccon2)nc2ccccc2c1=O`, the Kd is > 4 mM (inactive). Regarding `CC(C)NC(=O)Cc1c(O)c2ccccc2[nH]c1=O`, the Kd is > 4 mM (inactive). The result for `OCc1ccc(-c2cccs2)s1` reads > 4 mM (inactive).

As for `Cc1cc2cc3c(C)cc(=O)oc3c(C)c2o1`, the Kd is > 4 mM (inactive). The result for `Nc1nc(SCc2ccccc2)ns1` reads > 4 mM (inactive); that for `Cn1ccc(NC(=S)NC2CCCC2)n1`, > 4 mM (inactive). In the case of `O=C(O)CN1C(=O)c2ccc(C(=O)O)cc2C1=O` it was > 4 mM (inactive); in that of `Cc1cc(C(F)(F)F)n2nc(C(=O)O)c(Cl)c2n1`, > 4 mM (inactive). With `Nc1cccc(S(=O)(=O)N2CCCCC2)c1`, the Kd is > 4 mM (inactive). The result for `CNc1nc(OC)nc(N2CCOCC2)n1` reads > 4 mM (inactive); that for `O=C1CNC(=O)N1c1cccc(Cl)c1`, > 4 mM (inactive); that for `COC(=O)Cc1cc(=O)n(-c2ccccc2)[nH]1`, > 4 mM (inactive). In the case of `Cn1c(CSc2nc3ccccc3s2)n[nH]c1=S` it was > 4 mM (inactive); in that of `COc1cc2occc2c2oc(=O)ccc12`, > 4 mM (inactive); in that of `C=C1C(=O)O[C@@H]2C[C@@]3(C)CCC[C@H](C)C3=C[C@H]12`, > 4 mM (inactive). Regarding `C[C@]12CCC3C(CC[C@]4(O)C[C@@H](O)CC[C@]34C=O)[C@@]1(O)CCC2C1=CC(=O)OC1` (stereo partly specified), the Kd was > 4 mM (inactive). In the case of `Cc1n[nH]c(C)c1NC(=O)c1cccc(F)c1` it was > 4 mM (inactive); in that of `CC(O)c1nc2ccccc2[nH]1` (stereo unspecified), > 4 mM (inactive); in that of `N#Cc1c[nH]n2c(=O)cc(Cc3ccccc3)nc12`, > 4 mM (inactive). The result for `O=c1[nH]cnc2nc[nH]c12` reads > 4 mM (inactive).

For `O=C1NC(=O)C(C(C[N+](=O)[O-])c2ccc(O)cc2)C(=O)N1` (stereo unspecified), the Kd is > 4 mM (inactive). The result for `CN1CCC(N2CCCC(C(N)=O)C2)CC1` (stereo unspecified) reads > 4 mM (inactive). In the case of `C(=N\c1nccs1)/c1cccnc1` it was > 4 mM (inactive).

Turning to `CC1(C)CN=C(Nc2nc3ccccc3s2)S1`, the Kd was > 4 mM (inactive). As to `C[C@@H]1O[C@@H](O[C@H]2C[C@@H](O)[C@]3(CO)C4C(CC[C@]3(O)C2)[C@@]2(O)CC[C@H](C3=CC(=O)OC3)[C@@]2(C)C[C@H]4O)[C@H](O)[C@H](O)[C@H]1O` (stereo partly specified), the Kd was > 4 mM (inactive). The result for `Cc1cccc(C)c1N1C(=O)CCC1=O` reads > 4 mM (inactive); that for `Cc1ccc2nc(NC(=O)CN3CCOCC3)sc2c1`, > 4 mM (inactive); that for `COC(=O)N1CCN(c2ccc(OC)cc2)CC1`, > 4 mM (inactive). In the case of `Cn1c(=O)n(CC(=O)Nc2cccnc2)c2ccccc21` it was > 4 mM (inactive). In the case of `O=C1CSC(=Nc2ccccc2)N1`, the Kd was > 4 mM (inactive). The result for `COC(=O)C[C@H]1C(C)(C)C(OC(C)=O)[C@]2(O)C=C3C(CC[C@]4(C)C3CC(=O)O[C@H]4c3ccoc3)C1(C)C2=O` (stereo partly specified) reads > 4 mM (inactive); that for `O=C(O)c1ncoc1-c1ccccc1`, > 4 mM (inactive). In the case of `CN1C2CC[C@@H]1CC(OC(=O)[C@H](CO)c1ccccc1)C2` (stereo partly specified) it was > 4 mM (inactive); in that of `CC(C)(O)[C@@H]1Cc2cc3ccc(=O)oc3cc2O1`, > 4 mM (inactive).

Regarding `Nc1ncnc2c1ncn2C1O[C@H](COP(=O)(O)O)[C@@H](O)[C@H]1O` (stereo partly specified), the Kd was > 4 mM (inactive). The result for `O=C1CS/C(=N/N=C2CCCC2)N1` reads > 4 mM (inactive); that for `Nc1ccc2c(c1)C(=O)OC2`, > 4 mM (inactive). On to `CCOC(=O)CSCC(=O)Nc1nccs1`, for which the Kd was > 4 mM (inactive). In the case of `Nc1c(N2CCCC2)cnn(-c2ccccc2)c1=O` it was > 4 mM (inactive). In the case of `CC(=O)c1nnc2cc(C)nn2c1C` it was > 4 mM (inactive); in that of `Cc1ccc(C(C)C)cc2c(C)ccc1-2`, > 4 mM (inactive); in that of `O=c1[nH]c(NCCO)nnc1Cc1ccccc1`, > 4 mM (inactive). In the case of `C=C1[C@H]2CC[C@@]3(C)[C@H](c4ccoc4)OC(=O)C[C@]13O[C@H]1C[C@H](O)C(C)(C)[C@H](CC(=O)OC)[C@]12C` it was > 4 mM (inactive). Take `CCOC(=O)c1c[nH]c2c(F)cccc2c1=O`: the Kd is > 4 mM (inactive). In the case of `COc1ccc([C@@H]2CC(=O)c3c(O)cc(O[C@@H]4O[C@H](CO[C@H]5O[C@@H](C)[C@H](O)[C@@H](O)[C@H]5O)[C@@H](O)[C@H](O)[C@H]4O)cc3O2)cc1O` it was > 4 mM (inactive); in that of `O=C(O)c1ccc(N2CCOCC2)cc1`, > 4 mM (inactive). For `CC(=O)NC(C)(C)C1CC=C(C)/C(=N\O)C1` (stereo unspecified), the Kd was > 4 mM (inactive). In the case of `Cc1noc(C)c1C(=O)NC1=NCCS1` it was > 4 mM (inactive). The result for `O=C(CSC1=NCCS1)N1CCc2ccccc21` reads > 4 mM (inactive); that for `Nc1c(/C=C2\C=Nc3ccccc32)c(=O)nc2scnn12`, > 4 mM (inactive); that for `O=C(O)c1cccnc1N1CCCC1`, > 4 mM (inactive). The result for `COc1ccc2c(c1OC)OC[C@@H](c1ccc(OC)c(OC)c1OC)C2` reads > 4 mM (inactive). For the compound `c1cncc(Nc2nc(-c3cccnc3)cs2)c1`, the Kd is > 4 mM (inactive). Regarding `O=C1NC(=S)N/C1=C/c1ccc(O)c(Cl)c1`, the Kd is > 4 mM (inactive). In the case of `Cc1csc2nc(=O)c3ccccc3n12` it was > 4 mM (inactive); in that of `O=C(Nc1cccnc1)c1cccs1`, > 4 mM (inactive). The result for `NS(=O)(=O)c1ccc(F)cc1` reads > 4 mM (inactive); that for `C[C@@H]1C(=O)O[C@H]2[C@H]1CC[C@@]1(C)C=CC(=O)[C@@]3(C)O[C@@]213`, > 4 mM (inactive); that for `Cc1cc(/C=N/O)nc(=O)[nH]1`, > 4 mM (inactive). In the case of `O=c1[nH]cnc2c1nnn2Cc1ccccc1` it was > 4 mM (inactive); in that of `Cn1ncc(NC(=O)Nc2ccc(F)cc2F)c1C(N)=O`, > 4 mM (inactive).

With `CC(=O)c1c(O)cc(O)cc1O`, the Kd is > 4 mM (inactive).

Regarding `C[C@]12CCC3C(CC[C@H]4C[C@@H](O)CC[C@]34C)C1CCC2=O` (stereo partly specified), the Kd was > 4 mM (inactive). `COc1ccc(C)cc1-n1c(-c2ccncc2)n[nH]c1=S`: the Kd is > 4 mM (inactive). For `Cc1[nH]n(-c2ccccc2)c(=O)c1[N+](=O)[O-]`, the Kd was > 4 mM (inactive).
